± gives the expanded uncertainty stated by the source.
Experiment: xn = mol fraction of the nth substance listed
Settings: Liquid, Vibrating tube method

CCCCCCCCCC [decane] + CCCCCC
Settings | mass density [kg/m3]
342.8 K, 1000 kPa, x2 = 0.8991 | 626.74 ± 0.28
342.8 K, 2000 kPa, x2 = 0.8991 | 628.11 ± 0.29
342.8 K, 3000 kPa, x2 = 0.8991 | 629.48 ± 0.3
342.8 K, 4000 kPa, x2 = 0.8991 | 630.85 ± 0.31
342.8 K, 5000 kPa, x2 = 0.8991 | 632.19 ± 0.32
342.8 K, 6000 kPa, x2 = 0.8991 | 633.52 ± 0.32
342.8 K, 7000 kPa, x2 = 0.8991 | 634.85 ± 0.33
342.8 K, 8000 kPa, x2 = 0.8991 | 636.16 ± 0.34
342.8 K, 9000 kPa, x2 = 0.8991 | 637.46 ± 0.35
342.8 K, 10000 kPa, x2 = 0.8991 | 638.73 ± 0.36
342.8 K, 11000 kPa, x2 = 0.8991 | 639.99 ± 0.37
342.8 K, 12000 kPa, x2 = 0.8991 | 641.23 ± 0.38
342.8 K, 13000 kPa, x2 = 0.8991 | 642.43 ± 0.39
342.8 K, 14000 kPa, x2 = 0.8991 | 643.64 ± 0.4
342.8 K, 15000 kPa, x2 = 0.8991 | 644.8 ± 0.41
342.8 K, 16000 kPa, x2 = 0.8991 | 645.95 ± 0.42
342.8 K, 17000 kPa, x2 = 0.8991 | 647.07 ± 0.43
342.8 K, 18000 kPa, x2 = 0.8991 | 648.18 ± 0.44
342.8 K, 19000 kPa, x2 = 0.8991 | 649.24 ± 0.45
342.8 K, 20000 kPa, x2 = 0.8991 | 650.3 ± 0.46
342.8 K, 21000 kPa, x2 = 0.8991 | 651.32 ± 0.47
342.8 K, 22000 kPa, x2 = 0.8991 | 652.31 ± 0.48
342.8 K, 23000 kPa, x2 = 0.8991 | 653.28 ± 0.49
342.8 K, 24000 kPa, x2 = 0.8991 | 654.23 ± 0.51
342.8 K, 25000 kPa, x2 = 0.8991 | 655.16 ± 0.52
343.05 K, 1000 kPa, x2 = 0.0456 | 690.21 ± 0.26
343.05 K, 2000 kPa, x2 = 0.0456 | 691.25 ± 0.26
343.05 K, 3000 kPa, x2 = 0.0456 | 692.26 ± 0.27
343.05 K, 4000 kPa, x2 = 0.0456 | 693.3 ± 0.28
343.05 K, 5000 kPa, x2 = 0.0456 | 694.32 ± 0.28
343.05 K, 6000 kPa, x2 = 0.0456 | 695.32 ± 0.29
343.05 K, 7000 kPa, x2 = 0.0456 | 696.31 ± 0.3
343.05 K, 8000 kPa, x2 = 0.0456 | 697.29 ± 0.31
343.05 K, 9000 kPa, x2 = 0.0456 | 698.26 ± 0.31
343.05 K, 10000 kPa, x2 = 0.0456 | 699.22 ± 0.32
343.05 K, 11000 kPa, x2 = 0.0456 | 700.16 ± 0.33
343.05 K, 12000 kPa, x2 = 0.0456 | 701.08 ± 0.34
343.05 K, 13000 kPa, x2 = 0.0456 | 702 ± 0.34
343.05 K, 14000 kPa, x2 = 0.0456 | 702.89 ± 0.35
343.05 K, 15000 kPa, x2 = 0.0456 | 703.77 ± 0.36
343.05 K, 16000 kPa, x2 = 0.0456 | 704.64 ± 0.37
343.05 K, 17000 kPa, x2 = 0.0456 | 705.5 ± 0.38
343.05 K, 18000 kPa, x2 = 0.0456 | 706.36 ± 0.38
343.05 K, 19000 kPa, x2 = 0.0456 | 707.2 ± 0.39
343.05 K, 20000 kPa, x2 = 0.0456 | 708.02 ± 0.4
343.05 K, 21000 kPa, x2 = 0.0456 | 708.84 ± 0.41
343.05 K, 22000 kPa, x2 = 0.0456 | 709.65 ± 0.42
343.05 K, 23000 kPa, x2 = 0.0456 | 710.45 ± 0.43
343.05 K, 24000 kPa, x2 = 0.0456 | 711.25 ± 0.43
343.05 K, 25000 kPa, x2 = 0.0456 | 712.03 ± 0.44
343.06 K, 1000 kPa, x2 = 0.2185 | 681.09 ± 0.26
343.06 K, 1000 kPa, x2 = 0.7524 | 641.66 ± 0.28
343.06 K, 2000 kPa, x2 = 0.2185 | 682.19 ± 0.27
343.06 K, 2000 kPa, x2 = 0.7524 | 643.07 ± 0.28
343.06 K, 3000 kPa, x2 = 0.2185 | 683.33 ± 0.27
343.06 K, 3000 kPa, x2 = 0.7524 | 644.43 ± 0.29
343.06 K, 4000 kPa, x2 = 0.2185 | 684.4 ± 0.28
343.06 K, 4000 kPa, x2 = 0.7524 | 645.8 ± 0.3
343.06 K, 5000 kPa, x2 = 0.2185 | 685.47 ± 0.29
343.06 K, 5000 kPa, x2 = 0.7524 | 647.1 ± 0.31
343.06 K, 6000 kPa, x2 = 0.2185 | 686.52 ± 0.3
343.06 K, 6000 kPa, x2 = 0.7524 | 648.4 ± 0.32
343.06 K, 7000 kPa, x2 = 0.2185 | 687.54 ± 0.3
343.06 K, 7000 kPa, x2 = 0.7524 | 649.65 ± 0.33
343.06 K, 8000 kPa, x2 = 0.2185 | 688.57 ± 0.31
343.06 K, 8000 kPa, x2 = 0.7524 | 650.88 ± 0.34
343.06 K, 9000 kPa, x2 = 0.2185 | 689.57 ± 0.32
343.06 K, 9000 kPa, x2 = 0.7524 | 652.12 ± 0.34
343.06 K, 10000 kPa, x2 = 0.2185 | 690.55 ± 0.33
343.06 K, 10000 kPa, x2 = 0.7524 | 653.31 ± 0.35
343.06 K, 11000 kPa, x2 = 0.2185 | 691.53 ± 0.34
343.06 K, 11000 kPa, x2 = 0.7524 | 654.46 ± 0.36
343.06 K, 12000 kPa, x2 = 0.2185 | 692.48 ± 0.34
343.06 K, 12000 kPa, x2 = 0.7524 | 655.59 ± 0.37
343.06 K, 13000 kPa, x2 = 0.2185 | 693.45 ± 0.35
343.06 K, 13000 kPa, x2 = 0.7524 | 656.72 ± 0.38
343.06 K, 14000 kPa, x2 = 0.2185 | 694.36 ± 0.36
343.06 K, 14000 kPa, x2 = 0.7524 | 657.81 ± 0.39
343.06 K, 15000 kPa, x2 = 0.2185 | 695.27 ± 0.37
343.06 K, 15000 kPa, x2 = 0.7524 | 658.89 ± 0.4
343.06 K, 16000 kPa, x2 = 0.2185 | 696.19 ± 0.38
343.06 K, 16000 kPa, x2 = 0.7524 | 659.96 ± 0.41
343.06 K, 17000 kPa, x2 = 0.2185 | 697.07 ± 0.39
343.06 K, 17000 kPa, x2 = 0.7524 | 661 ± 0.42
343.06 K, 18000 kPa, x2 = 0.2185 | 697.94 ± 0.39
343.06 K, 18000 kPa, x2 = 0.7524 | 662.03 ± 0.43
343.06 K, 19000 kPa, x2 = 0.2185 | 698.83 ± 0.4
343.06 K, 19000 kPa, x2 = 0.7524 | 663.03 ± 0.44
343.06 K, 20000 kPa, x2 = 0.2185 | 699.68 ± 0.41
343.06 K, 20000 kPa, x2 = 0.7524 | 664.01 ± 0.45
343.06 K, 21000 kPa, x2 = 0.2185 | 700.53 ± 0.42
343.06 K, 21000 kPa, x2 = 0.7524 | 664.97 ± 0.46
343.06 K, 22000 kPa, x2 = 0.2185 | 701.36 ± 0.43

Reference: the NIST ThermoML archive (doi:10.1021/je200721d)
